From PubChem BioAssay (NCI)
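Grown in 96-well plates, cells were treated for 48 hours with each compound at five concentrations. Insufficient inhibition: endpoint recorded as highest concentration tested. TGI: concentration producing complete growth inhibition.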

Columns and labels:
Assay in all cases: NCI-60 cell line screen, 48 h
[1] = tested on: 786-0 renal
[2] = tested on: A498 renal
[3] = tested on: HL-60(TB) leukemia
[4] = tested on: IGROV1 ovarian
[5] = tested on: KM12 colon
[6] = tested on: MALME-3M melanoma
[7] = tested on: NCI-H23 lung
[8] = tested on: OVCAR-3 ovarian
[9] = tested on: OVCAR-5 ovarian
[10] = tested on: RPMI-8226 leukemia

Row | SMILES | TGI [1] | TGI [2] | TGI [3] | TGI [4] | TGI [5] | TGI [6] | TGI [7] | TGI [8] | TGI [9] | TGI [10]
1 | [N-]=[N+]=NC1=C(c2ccccn2)C(=O)c2cccc3cccc1c23 | > 100 µM | 31.5 µM | > 100 µM | > 100 µM | > 100 µM | > 100 µM | > 100 µM | > 100 µM | > 100 µM | > 100 µM
2 | N#Cc1c(Cl)cc(Cl)n2c1nc1ccccc12 | 7.63 µM | 47.3 µM | > 31.1 µM | 38.7 µM | 33.1 µM | 7.36 µM | 39.9 µM | 15.6 µM | 41.9 µM | 58.9 µM
3 | CC1=NNC(=O)C1C(CC(=O)c1c[nH]c2ccccc12)C(=O)O (stereo not given) | > 100 µM | > 100 µM | > 100 µM | > 100 µM | > 100 µM | > 100 µM | > 100 µM | > 100 µM | > 100 µM | > 100 µM
4 | CCC/C(Cl)=N\OC(=O)Nc1ccc(OC(F)(F)F)cc1 | 26.1 µM | 54.8 µM | > 20.6 µM | 22 µM | 30.8 µM | 4.22 µM | 53.8 µM | 25.2 µM | 35.9 µM | 4.43 µM
5 | COc1ccc2c(c1)CCN1CCc3ccccc3CC21 (stereo not given) | > 100 µM | > 100 µM | 68 µM | > 100 µM | > 100 µM | > 100 µM | > 100 µM | > 100 µM | > 100 µM | 54.9 µM
6 | C=CCOc1ccc(C2(O)c3ccccc3C3=NCCCN32)cc1 (stereo not given) | > 78.6 µM | > 100 µM | > 100 µM | > 100 µM | > 100 µM | 27.4 µM | > 100 µM | > 100 µM | > 100 µM | > 78.5 µM
7 | C=CCOc1ccc(C2C(C(=O)OCC)C(=O)CC(C)(O)C2C(=O)OCC)cc1OC (stereo not given) | > 100 µM | > 100 µM | > 100 µM | > 100 µM | > 100 µM | > 100 µM | > 100 µM | > 100 µM | > 100 µM | > 100 µM
8 | On1c(-c2ccccc2)nc2ccccc2c1=S | > 100 µM | > 100 µM | > 100 µM | > 100 µM | > 100 µM | > 100 µM | > 100 µM | > 100 µM | > 100 µM | > 100 µM
9 | CC12CCC(O)CC1CCC1C2CCC2(C)C(C(=O)CC(O)C(F)(F)F)CCC12 (stereo not given) | 21.6 µM | 40.7 µM | 47.5 µM | > 100 µM | > 100 µM | > 100 µM | > 100 µM | > 90.9 µM | > 76.5 µM | 26.6 µM
10 | CC(=O)O[C@H]1CC[C@@]2(C)C(=CC[C@H]3[C@@H]4C[C@H](N5CCOCC5)[C@H](OC(C)=O)[C@@]4(C)CC[C@@H]32)C1 | > 100 µM | > 100 µM | > 100 µM | > 100 µM | > 100 µM | > 100 µM | > 100 µM | > 100 µM | > 100 µM | > 100 µM
11 | C[N+]12CCCCC1C(CN1C(=O)Cc3c4ccccc4c(c4ccccc34)CC1=O)CCC2 (stereo not given) | > 100 µM | > 100 µM | > 100 µM | > 100 µM | > 100 µM | > 100 µM | > 100 µM | > 100 µM | > 100 µM | > 100 µM
12 | CC(=O)[C@@]1(O)CC[C@H]2[C@@H]3C[C@H](C)C4=CC(=O)C=C[C@]4(C)[C@@]3(F)[C@@H](O)C[C@@]21C | > 100 µM | > 100 µM | > 100 µM | > 100 µM | > 100 µM | > 100 µM | > 100 µM | > 100 µM | > 100 µM | > 100 µM
13 | CSc1ncnc2c1ncn2CCC#N | > 100 µM | > 100 µM | > 100 µM | > 100 µM | > 100 µM | > 100 µM | > 100 µM | > 100 µM | > 100 µM | > 100 µM
14 | C=C1C(=O)C=C[C@]2(C)CC[C@H]3C(=C)C(=O)O[C@@H]3[C@@H]12 | 3.28 µM | 13.5 µM | 14.4 µM | 4.28 µM | 3.53 µM | 5.18 µM | 9.61 µM | 11.1 µM | 3 µM | 5.87 µM
15 | CC1=C(CO)C(=O)O[C@@H]([C@@H](CO)[C@H]2CCC3C4C[C@@H](O)[C@@]5(O)CC=CC(=O)[C@]5(C)C4CC[C@@]32C)C1 (stereo not given in full) | > 100 µM | > 100 µM | > 100 µM | > 100 µM | > 100 µM | > 100 µM | > 100 µM | 83.9 µM | > 100 µM | > 100 µM
